Test results published in doi:10.1101/2025.11.20.689572v1 (biorxiv, 2025).

How the values were obtained:
CHRM1 = biological target: T1, CHRM1 (Homo sapiens, UniProt P11229); test: cell-based; parameters: species or system HEK293; TRUPATH BRET2 G-protein dissociation; antagonist mode against agonist EC80; conditions: HEK293, read-out: N-Desmethyl Xanomeline, Assay=Gq; agonist mode, % of control agonist
T1 sequence (P11229 1-460): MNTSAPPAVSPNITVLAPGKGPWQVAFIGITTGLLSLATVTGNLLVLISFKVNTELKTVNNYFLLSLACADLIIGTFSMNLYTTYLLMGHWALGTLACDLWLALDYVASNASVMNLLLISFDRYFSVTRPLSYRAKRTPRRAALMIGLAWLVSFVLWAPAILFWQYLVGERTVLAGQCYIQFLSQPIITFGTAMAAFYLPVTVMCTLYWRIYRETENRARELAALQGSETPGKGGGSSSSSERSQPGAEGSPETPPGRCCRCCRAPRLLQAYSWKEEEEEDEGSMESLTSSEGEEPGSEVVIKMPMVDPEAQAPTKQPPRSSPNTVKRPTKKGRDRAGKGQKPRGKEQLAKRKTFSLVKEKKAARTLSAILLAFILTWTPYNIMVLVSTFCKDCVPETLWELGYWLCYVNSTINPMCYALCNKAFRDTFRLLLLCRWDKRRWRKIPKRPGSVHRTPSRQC

HTR2C = biological target: T2, HTR2C (Homo sapiens, UniProt P28335); test: cell-based; parameters: species or system HEK293; TRUPATH BRET2 G-protein dissociation; antagonist mode against agonist EC80; conditions: HEK293, read-out: N-Desmethyl Xanomeline, Assay=Gq; agonist mode, % of control agonist
T2 sequence (P28335 1-458): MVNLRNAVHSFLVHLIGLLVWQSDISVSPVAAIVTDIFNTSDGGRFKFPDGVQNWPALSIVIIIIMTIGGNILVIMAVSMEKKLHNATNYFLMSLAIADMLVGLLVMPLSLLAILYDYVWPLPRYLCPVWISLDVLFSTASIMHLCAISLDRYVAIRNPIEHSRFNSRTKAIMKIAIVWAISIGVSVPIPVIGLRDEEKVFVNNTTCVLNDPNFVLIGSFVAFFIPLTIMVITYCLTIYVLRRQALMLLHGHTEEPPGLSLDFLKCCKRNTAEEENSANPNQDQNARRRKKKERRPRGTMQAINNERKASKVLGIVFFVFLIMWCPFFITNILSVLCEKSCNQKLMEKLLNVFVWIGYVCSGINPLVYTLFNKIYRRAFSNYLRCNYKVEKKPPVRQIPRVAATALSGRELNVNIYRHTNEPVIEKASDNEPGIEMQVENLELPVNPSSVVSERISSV

DRD4 = biological target: T3, DRD4 (Homo sapiens, UniProt P21917); test: cell-based; parameters: PRESTO-Tango beta-arrestin2 recruitment, luciferase luminescence, concentration-response; conditions: HTLA, read-out: Xanomeline; Assay=Tango; agonist mode, % of control agonist
T3 sequence (P21917 1-419): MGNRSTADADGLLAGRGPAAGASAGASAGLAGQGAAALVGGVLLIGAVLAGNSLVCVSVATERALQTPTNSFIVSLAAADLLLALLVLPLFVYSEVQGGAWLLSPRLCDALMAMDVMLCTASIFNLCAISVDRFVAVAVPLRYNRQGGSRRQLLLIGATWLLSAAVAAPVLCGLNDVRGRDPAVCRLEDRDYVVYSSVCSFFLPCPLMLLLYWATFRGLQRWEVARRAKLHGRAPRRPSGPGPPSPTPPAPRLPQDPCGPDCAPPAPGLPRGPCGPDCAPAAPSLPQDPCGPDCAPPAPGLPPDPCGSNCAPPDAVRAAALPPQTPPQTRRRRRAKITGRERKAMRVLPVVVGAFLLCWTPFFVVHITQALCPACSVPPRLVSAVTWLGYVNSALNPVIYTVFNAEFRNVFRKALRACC

β2 = β2 (Homo sapiens, UniProt P07550); test: biochemical; parameters: gene ADRB2; species or system HEK293; PDSP competitive radioligand binding, membranes of transfected HEK293 cells, filtration, Ki by Cheng-Prusoff
Protocol: (§1) Competitive radioligand binding assays were performed at the NIMH Psychoactive Drug Screening Program (PDSP) using membranes from transiently transfected HEK293 cells in 96-well format as described. Complete, target-specific protocols are available at the PDSP website (https://pdsp.unc.edu/pdspweb/?site=assays). Primary screenings were run at a single test concentration (10 µM) in quadruplicate. […] Secondary assays were conducted in triplicate using 12-point serial dilutions (0, 0.1, 0.3, 1, 3, 10, 30, 100, 300 nM; 1, 3, 10 µM). Assays were performed in a final volume of 125 µL per well in binding buffer, as detailed in the NIMH PDSP protocols (e.g., standard binding buffer: 50 mM Tris-HCl, pH 7.4, 10 mM MgCl2, 0.1 mM EDTA). Radioligand concentrations were chosen near the target-specific Kd. […] After 90 min incubation at room temperature, reactions were terminated by vacuum filtration onto 0.3% polyethyleneimine-pretreated UniFilter-96 GF/C Microplates using a FilterMate harvester, washed three times with ice-cold buffer (50 mM Tris HCl, pH 7.4), dried, treated with MicroScint-O [compound left out] scintillation cocktails, and counted on a MicroBeta counter. Equilibrium inhibition constants (Ki) were calculated from fitted IC50 values using the Cheng–Prusoff equation [14] with the assay-specific radioligand concentration and Kd. […] ND=not determined.

α1A = α1A (Homo sapiens, UniProt P35348); test: biochemical; parameters: gene ADRA1A; species or system HEK293; PDSP competitive radioligand binding, membranes of transfected HEK293 cells, filtration, Ki by Cheng-Prusoff
Protocol: as §1

Sequence of α1A (P35348 whole entry): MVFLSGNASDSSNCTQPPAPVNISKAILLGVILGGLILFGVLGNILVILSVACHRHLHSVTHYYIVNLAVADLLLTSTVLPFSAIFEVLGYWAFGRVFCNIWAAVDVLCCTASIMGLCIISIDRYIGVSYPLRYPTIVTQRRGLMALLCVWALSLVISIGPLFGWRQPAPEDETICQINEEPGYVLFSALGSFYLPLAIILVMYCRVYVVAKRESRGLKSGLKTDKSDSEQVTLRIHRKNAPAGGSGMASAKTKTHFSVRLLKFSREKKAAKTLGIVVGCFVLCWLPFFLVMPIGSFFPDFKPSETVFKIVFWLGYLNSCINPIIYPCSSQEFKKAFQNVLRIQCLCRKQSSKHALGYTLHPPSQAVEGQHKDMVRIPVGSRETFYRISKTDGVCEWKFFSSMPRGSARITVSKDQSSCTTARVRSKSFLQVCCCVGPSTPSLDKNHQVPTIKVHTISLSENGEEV
Sequence of β2 (P07550 whole entry): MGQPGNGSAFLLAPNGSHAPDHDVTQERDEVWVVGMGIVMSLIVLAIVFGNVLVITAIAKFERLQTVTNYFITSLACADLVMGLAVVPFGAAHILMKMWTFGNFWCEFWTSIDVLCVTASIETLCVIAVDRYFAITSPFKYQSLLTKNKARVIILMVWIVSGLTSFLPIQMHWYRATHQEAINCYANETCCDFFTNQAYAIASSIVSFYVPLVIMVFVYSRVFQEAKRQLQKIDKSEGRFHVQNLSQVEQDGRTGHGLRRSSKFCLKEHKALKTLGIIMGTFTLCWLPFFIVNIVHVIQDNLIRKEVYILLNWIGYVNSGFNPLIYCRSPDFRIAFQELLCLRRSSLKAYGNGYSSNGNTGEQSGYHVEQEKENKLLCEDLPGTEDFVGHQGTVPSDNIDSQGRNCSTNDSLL

| Compound | Emax (CHRM1) | Emax (HTR2C) | Emax (DRD4) | Ki (β2) | Ki (α1A) |
| --- | --- | --- | --- | --- | --- |
| CCCCCCOc1nsnc1C1=CCCNC1 [N-desmethylxanomeline] | 95.9% | 106% | – | – | – |
| CCCCCCOc1nsnc1C1=CCCN(C)C1 [Xanomeline] | – | – | 11.4% | > 10 µM | > 10 µM |
